Data taken from ChEMBL document CHEMBL1201862, “PubChem BioAssay data set” (2004).
One block for each compound: values may come before it. The source made the active and inactive calls.

How the values were obtained:
[1] = target: Dual specificity tyrosine-phosphorylation-regulated kinase 1A (Rattus norvegicus, UniProt Q63470); type: biochemical, Homo sapiens
[2] = target: T1, RNA-binding protein pos-1 (Caenorhabditis elegans, UniProt G5EF15); assay: disruptors of C. elegans POS-1 RNA interaction – biochemical, fluorescence polarization, dose response (AID 1964);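 further: purified POS-1 fused to maltose binding protein made in E. coli; potency of compounds blocking POS-1 binding to fluorescent RNA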
T1 sequence (G5EF15 whole entry): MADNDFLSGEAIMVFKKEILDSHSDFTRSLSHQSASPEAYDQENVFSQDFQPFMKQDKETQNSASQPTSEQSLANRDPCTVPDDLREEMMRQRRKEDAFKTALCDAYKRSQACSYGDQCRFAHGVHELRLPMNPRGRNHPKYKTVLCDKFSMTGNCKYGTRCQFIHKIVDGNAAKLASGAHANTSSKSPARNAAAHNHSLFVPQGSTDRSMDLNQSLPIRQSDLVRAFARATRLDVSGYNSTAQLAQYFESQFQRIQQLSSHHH

[3] = target: Glucose-6-phosphate 1-dehydrogenase (Homo sapiens, UniProt P11413); assay: inhibition of Homo sapiens G6PD, dose series – biochemical, fluorescence, selectivity assay for P. falciparum G6PD inhibitor project, dose response (AID 504792); type: functional
Glucose-6-phosphate 1-dehydrogenase, sequence (P11413 whole entry): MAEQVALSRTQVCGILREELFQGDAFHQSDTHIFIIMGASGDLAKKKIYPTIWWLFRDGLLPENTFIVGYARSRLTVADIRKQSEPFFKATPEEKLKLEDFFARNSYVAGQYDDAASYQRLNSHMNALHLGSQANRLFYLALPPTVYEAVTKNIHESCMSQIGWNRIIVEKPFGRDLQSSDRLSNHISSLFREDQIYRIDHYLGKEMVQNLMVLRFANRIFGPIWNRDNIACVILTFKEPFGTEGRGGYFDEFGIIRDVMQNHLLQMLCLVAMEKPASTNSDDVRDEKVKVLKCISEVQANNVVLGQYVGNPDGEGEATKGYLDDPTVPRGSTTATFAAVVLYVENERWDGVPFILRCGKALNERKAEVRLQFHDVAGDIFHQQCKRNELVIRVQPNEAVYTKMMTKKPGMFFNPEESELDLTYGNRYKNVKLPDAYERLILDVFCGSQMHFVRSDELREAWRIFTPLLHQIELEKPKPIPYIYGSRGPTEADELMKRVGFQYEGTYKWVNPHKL

[4] = target: T2, Zinc finger protein mex-5 (Caenorhabditis elegans, UniProt Q9XUB2); assay: potency of MEX-5 RNA-binding blockers – biochemical, C. elegans, fluorescence polarization, dose response (AID 1960)
T2 sequence (Q9XUB2 whole entry): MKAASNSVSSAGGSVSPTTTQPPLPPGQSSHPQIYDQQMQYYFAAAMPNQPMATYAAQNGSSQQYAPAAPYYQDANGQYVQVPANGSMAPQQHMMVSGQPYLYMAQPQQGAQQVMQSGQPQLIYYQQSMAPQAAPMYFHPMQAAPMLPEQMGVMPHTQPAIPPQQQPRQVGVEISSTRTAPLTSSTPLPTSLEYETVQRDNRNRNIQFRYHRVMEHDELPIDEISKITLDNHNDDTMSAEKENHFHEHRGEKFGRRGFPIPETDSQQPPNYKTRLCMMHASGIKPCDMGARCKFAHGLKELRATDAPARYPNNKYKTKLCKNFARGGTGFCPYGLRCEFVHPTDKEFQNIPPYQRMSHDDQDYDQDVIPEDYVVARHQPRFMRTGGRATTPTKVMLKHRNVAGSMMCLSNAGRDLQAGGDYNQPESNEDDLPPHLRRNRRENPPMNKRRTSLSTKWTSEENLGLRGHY

INS1 = assay: INS-1E survival protection against cytokine death – cell-based, luminescence, retest, dose response (AID 449756); type: functional; conditions: Rattus norvegicus, INS1;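 further: cell death triggered by IL-1 beta plus TNF-alpha plus IFN-gamma mixture; protective hits raise ATP signal compared with cytokine alone wells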
[5] = target: T3, Rac GTPase-activating protein 1 (Homo sapiens, UniProt Q9H0H5); assay: blockers of MgcRacGAP-driven Rac1 GTP hydrolysis – biochemical, ADP Hunter fluorescence, primary and confirmatory, confirmation (AID 624330); type: functional
T3 sequence (Q9H0H5 whole entry): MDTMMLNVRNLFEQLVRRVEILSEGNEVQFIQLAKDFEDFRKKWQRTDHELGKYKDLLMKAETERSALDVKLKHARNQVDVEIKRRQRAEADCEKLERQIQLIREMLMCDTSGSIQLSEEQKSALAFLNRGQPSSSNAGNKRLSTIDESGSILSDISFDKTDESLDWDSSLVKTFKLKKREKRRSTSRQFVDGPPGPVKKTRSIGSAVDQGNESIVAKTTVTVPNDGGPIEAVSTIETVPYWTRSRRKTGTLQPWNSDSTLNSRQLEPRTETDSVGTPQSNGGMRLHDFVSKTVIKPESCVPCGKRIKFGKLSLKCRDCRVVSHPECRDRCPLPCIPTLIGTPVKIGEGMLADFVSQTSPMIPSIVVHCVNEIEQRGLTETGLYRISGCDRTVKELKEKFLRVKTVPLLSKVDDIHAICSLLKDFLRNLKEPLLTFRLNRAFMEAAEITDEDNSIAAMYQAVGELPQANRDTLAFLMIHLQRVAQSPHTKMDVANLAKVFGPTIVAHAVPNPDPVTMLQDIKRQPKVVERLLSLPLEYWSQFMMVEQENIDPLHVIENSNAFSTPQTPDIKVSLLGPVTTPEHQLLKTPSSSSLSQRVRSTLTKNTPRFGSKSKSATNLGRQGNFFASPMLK

Genome polyprotein = Genome polyprotein (dengue virus type 2, UniProt P29990); assay: flavivirus cap methylation enzyme inhibition – biochemical, confirmation dose response, primary screen (AID 588689); type: functional
Large T antigen = Large T antigen (Simian virus 40, UniProt P03070); type: functional, Betapolyomavirus macacae;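 further: Confirmatory-stage PubChem screen for compounds that inhibit SV40 T antigen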
Large T antigen, sequence (P03070 whole entry): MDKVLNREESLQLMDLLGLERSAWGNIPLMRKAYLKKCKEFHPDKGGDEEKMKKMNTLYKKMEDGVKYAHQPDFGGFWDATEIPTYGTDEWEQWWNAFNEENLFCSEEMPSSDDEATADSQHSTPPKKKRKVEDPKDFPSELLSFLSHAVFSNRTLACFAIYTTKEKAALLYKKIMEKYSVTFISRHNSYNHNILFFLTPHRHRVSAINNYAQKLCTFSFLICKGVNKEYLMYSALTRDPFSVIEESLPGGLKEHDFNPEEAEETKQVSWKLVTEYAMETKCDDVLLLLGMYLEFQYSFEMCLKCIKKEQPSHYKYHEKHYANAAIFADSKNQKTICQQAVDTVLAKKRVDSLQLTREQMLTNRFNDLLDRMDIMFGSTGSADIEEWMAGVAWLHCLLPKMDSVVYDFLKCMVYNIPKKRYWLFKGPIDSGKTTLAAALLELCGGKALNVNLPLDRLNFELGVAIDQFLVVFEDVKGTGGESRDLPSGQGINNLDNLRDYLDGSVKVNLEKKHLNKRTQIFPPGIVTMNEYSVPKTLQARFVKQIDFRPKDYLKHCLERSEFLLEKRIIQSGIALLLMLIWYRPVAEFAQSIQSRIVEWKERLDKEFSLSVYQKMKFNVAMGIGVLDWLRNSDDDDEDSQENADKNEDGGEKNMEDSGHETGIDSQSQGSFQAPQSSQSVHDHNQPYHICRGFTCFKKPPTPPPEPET

[6] = target: T4, Mannose-6-phosphate isomerase (Homo sapiens, UniProt P34949); assay: MPI inhibition at elevated mannose 6-phosphate – biochemical, fluorescence intensity, high mannose 6-phosphate, primary screen (AID 1220)
T4 sequence (P34949 whole entry): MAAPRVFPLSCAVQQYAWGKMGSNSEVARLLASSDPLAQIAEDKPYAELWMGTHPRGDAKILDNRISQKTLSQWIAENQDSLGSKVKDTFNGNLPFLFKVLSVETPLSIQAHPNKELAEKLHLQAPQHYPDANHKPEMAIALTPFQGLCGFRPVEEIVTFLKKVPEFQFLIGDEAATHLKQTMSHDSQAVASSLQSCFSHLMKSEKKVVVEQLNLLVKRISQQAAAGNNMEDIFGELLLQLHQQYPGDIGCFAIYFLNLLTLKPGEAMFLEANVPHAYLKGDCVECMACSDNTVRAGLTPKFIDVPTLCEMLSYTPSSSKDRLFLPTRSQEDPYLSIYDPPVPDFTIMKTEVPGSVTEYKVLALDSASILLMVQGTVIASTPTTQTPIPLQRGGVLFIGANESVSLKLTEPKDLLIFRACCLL

[7] = NIH3T3 cell viability loss – ATP luminescence, mouse fibroblasts, counter-screen, dose response (AID 2010); type: functional, cell-based;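 further: cells exposed to compound for about 90 hours before reading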
[8] = target: T5, Voltage-gated N-type calcium channel alpha-1B subunit/Amyloid beta A4 precursor protein-binding family A member 1 (Homo sapiens, UniProt Q00975+Q02410); type: protein assay
T5 sequence (Q00975 whole entry): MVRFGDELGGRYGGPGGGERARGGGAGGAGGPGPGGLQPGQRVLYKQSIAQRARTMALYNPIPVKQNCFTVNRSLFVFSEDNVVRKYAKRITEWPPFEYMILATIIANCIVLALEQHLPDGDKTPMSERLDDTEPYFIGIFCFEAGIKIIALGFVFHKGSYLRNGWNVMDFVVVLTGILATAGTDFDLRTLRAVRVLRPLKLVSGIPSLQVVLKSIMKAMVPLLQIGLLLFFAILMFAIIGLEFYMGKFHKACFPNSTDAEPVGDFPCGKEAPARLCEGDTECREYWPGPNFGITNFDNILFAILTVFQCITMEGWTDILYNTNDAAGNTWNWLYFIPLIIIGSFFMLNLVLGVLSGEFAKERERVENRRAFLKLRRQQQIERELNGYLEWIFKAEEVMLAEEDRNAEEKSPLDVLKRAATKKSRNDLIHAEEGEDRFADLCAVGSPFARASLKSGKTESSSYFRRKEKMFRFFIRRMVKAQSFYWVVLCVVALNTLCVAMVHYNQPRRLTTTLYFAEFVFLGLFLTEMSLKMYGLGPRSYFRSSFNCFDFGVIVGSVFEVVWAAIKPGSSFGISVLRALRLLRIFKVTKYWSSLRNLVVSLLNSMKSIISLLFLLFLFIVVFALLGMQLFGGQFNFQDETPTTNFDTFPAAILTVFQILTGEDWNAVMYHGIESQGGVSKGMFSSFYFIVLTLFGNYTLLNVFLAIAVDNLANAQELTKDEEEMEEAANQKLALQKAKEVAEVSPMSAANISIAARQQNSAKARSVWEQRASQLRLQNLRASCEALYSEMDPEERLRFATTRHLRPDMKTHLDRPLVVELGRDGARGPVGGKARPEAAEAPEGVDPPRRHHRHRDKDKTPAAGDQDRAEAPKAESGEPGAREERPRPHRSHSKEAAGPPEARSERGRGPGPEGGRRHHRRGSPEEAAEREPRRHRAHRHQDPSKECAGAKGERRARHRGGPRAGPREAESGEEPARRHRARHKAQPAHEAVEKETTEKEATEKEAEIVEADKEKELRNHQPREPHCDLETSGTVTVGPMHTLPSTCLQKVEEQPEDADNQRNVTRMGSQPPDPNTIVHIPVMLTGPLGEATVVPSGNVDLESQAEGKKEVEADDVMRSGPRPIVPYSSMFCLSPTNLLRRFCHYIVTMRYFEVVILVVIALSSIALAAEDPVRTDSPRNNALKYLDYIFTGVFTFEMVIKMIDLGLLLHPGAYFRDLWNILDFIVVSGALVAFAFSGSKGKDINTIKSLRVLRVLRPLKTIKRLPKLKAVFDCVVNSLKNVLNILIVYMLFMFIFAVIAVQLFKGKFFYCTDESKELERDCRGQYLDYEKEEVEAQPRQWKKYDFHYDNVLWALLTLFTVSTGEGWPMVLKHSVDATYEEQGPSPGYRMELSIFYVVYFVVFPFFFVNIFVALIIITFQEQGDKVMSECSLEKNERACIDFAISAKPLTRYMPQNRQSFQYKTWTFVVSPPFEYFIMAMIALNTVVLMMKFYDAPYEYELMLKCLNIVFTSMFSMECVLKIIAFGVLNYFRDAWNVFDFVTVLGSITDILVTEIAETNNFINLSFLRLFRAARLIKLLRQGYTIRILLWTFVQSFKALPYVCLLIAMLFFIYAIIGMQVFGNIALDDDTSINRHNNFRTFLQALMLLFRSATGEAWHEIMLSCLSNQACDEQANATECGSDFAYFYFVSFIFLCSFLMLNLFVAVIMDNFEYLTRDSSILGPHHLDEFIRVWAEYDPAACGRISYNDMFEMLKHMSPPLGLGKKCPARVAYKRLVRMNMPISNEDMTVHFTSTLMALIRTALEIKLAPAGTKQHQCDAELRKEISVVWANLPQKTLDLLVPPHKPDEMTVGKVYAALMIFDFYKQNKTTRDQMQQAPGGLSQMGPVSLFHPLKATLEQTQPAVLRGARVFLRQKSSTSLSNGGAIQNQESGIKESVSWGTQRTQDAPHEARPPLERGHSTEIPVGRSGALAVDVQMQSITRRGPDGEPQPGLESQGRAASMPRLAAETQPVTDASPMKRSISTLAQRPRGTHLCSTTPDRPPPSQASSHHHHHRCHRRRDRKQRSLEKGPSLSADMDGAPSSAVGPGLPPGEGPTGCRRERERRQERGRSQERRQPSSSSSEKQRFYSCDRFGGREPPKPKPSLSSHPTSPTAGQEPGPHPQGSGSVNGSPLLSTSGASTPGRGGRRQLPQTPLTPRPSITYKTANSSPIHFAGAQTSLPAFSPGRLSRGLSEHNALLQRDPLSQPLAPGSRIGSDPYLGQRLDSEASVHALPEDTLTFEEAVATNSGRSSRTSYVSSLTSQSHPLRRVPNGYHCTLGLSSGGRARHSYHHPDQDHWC
T5 sequence (Q02410 whole entry): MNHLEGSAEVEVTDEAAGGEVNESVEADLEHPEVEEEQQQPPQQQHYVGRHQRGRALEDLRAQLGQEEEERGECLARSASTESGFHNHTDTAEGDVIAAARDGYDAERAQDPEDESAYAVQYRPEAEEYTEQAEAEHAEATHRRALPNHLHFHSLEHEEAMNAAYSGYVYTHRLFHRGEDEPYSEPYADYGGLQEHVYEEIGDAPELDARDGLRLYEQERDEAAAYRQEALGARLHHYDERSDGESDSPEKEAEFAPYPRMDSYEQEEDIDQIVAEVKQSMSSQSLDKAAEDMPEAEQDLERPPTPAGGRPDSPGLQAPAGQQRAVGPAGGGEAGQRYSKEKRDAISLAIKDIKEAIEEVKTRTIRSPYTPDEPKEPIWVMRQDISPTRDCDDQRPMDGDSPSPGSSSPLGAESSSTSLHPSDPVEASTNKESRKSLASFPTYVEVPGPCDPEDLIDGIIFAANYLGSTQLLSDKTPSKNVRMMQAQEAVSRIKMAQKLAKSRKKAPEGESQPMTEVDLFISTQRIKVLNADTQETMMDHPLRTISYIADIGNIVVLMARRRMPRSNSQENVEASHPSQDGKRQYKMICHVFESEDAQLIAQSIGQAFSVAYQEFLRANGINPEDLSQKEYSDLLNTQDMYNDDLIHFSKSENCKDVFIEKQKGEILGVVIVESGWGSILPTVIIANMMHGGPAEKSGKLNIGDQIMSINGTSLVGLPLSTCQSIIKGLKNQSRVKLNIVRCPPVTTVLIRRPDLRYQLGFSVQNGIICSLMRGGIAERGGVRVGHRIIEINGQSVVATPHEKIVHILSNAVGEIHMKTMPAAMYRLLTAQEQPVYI

Mucolipin-3 = target: T6, Mucolipin-3 (Homo sapiens, UniProt Q8TDD5); assay: Fluorescence counterscreen assay for […] agonists: dose response cell-based high-throughput screening assay to identify agonists of the transient receptor potential channel ML3 (TRPML3). [Related pubchem assays: 1424, 1448 ]; type: functional
T6 sequence (Q8TDD5 whole entry): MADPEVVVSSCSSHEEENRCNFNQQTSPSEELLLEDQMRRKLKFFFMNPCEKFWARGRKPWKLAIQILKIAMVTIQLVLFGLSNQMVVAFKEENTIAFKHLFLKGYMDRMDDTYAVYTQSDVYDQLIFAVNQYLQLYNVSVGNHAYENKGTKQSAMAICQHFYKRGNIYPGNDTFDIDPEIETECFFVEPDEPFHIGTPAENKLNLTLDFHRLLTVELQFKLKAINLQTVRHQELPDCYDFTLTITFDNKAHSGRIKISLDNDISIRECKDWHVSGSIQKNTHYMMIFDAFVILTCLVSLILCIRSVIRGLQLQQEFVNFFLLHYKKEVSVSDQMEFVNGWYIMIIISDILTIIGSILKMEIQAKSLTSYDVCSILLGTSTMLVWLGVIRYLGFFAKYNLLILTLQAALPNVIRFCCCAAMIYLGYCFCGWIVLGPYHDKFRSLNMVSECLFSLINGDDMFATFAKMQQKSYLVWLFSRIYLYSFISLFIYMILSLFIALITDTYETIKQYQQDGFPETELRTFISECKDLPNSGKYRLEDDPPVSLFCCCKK

Ion channel NompC = Ion channel NompC (Danio rerio, UniProt Q7T1G6); assay: Dose response cell-based high-throughput screening assay for agonists of the transient receptor potential channel N1 (TRPN1). [Related pubchem assays (depositor defined):AID1424, AID1448]; type: functional
[9] = target: T5, Voltage-gated N-type calcium channel alpha-1B subunit/Amyloid beta A4 precursor protein-binding family A member 1; type: protein assay; remark: listed apart in the source
[10] = Trypanosoma cruzi growth suppression in host cells – NIH3T3 host cells, beta-gal luminescence, confirmation (AID 2044); type: functional, cell-based;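 further: intracellular parasites grown in NIH/3T3 mouse fibroblasts as host cells; luminescent beta-galactosidase reporter signal from transgenic T. cruzi replicating inside host cells; inhibitors lower the luminescence signal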
[11] = target: DNA dC->dU-editing enzyme APOBEC-3G (Homo sapiens, UniProt Q9HC16); assay: Dose Response confirmation of small molecule APOBEC3G DNA Deaminase Inhibitors via a fluorescence-based single-stranded DNA deaminase assay. [Related pubchem assays (depositor defined):AID493012, AID493028]; type: functional
DNA dC->dU-editing enzyme APOBEC-3G, sequence (Q9HC16 whole entry): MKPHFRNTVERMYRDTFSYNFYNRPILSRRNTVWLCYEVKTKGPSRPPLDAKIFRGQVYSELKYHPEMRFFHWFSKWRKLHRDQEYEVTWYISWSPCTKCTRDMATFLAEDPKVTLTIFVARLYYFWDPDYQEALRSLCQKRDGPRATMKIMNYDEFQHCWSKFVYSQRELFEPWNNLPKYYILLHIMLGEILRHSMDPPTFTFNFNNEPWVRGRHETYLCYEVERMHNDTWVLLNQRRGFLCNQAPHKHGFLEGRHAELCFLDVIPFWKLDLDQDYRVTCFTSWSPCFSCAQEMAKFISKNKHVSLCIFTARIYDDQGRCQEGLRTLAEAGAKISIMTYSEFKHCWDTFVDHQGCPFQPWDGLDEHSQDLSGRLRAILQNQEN

[12] = target: DNA dC->dU-editing enzyme APOBEC-3A (Homo sapiens, UniProt P31941); assay: A3A deaminase inhibition for selectivity – biochemical, dose response (AID 504722); type: functional
DNA dC->dU-editing enzyme APOBEC-3A, sequence (P31941 whole entry): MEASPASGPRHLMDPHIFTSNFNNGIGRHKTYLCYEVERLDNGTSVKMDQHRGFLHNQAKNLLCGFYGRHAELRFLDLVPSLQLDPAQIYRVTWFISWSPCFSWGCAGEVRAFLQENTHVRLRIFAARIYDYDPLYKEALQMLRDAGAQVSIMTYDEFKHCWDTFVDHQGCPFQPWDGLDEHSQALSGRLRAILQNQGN

- AC50 [1]: 0.676 µM (active)
Compound: c1cncc(-c2csc(-c3cccnc3)n2)c1

Compound: O=S(=O)(Nc1cc(Sc2cccc3cccnc23)c(O)c2ccccc12)c1ccc(F)cc1
- EC50 [2]: > 300 µM (not active)
- IC50 [3]: > 80 µM (inactive)
- EC50 [4]: 40.1 µM (active)
- AC50 (INS1): 1.21 µM (active)

Compound: Cc1c(N=C2C=C(Br)C(=O)C(Br)=C2)c(=O)n(-c2ccccc2)n1C
- IC50 [5]: 52.2 µM (active)
- IC50 (Genome polyprotein): 82.5 µM (active)
- IC50 [3]: 58.4 µM (inactive)
- IC50 (Large T antigen): 27 µM (active)
- IC50 [6]: > 50 µM (not active)

- AC50 [1]: 6.97 µM (active)
Compound: c1cncc(-c2ccc3[nH]ccc3c2)c1

Compound: Cc1cc(C)c2c(=O)n(CC(=O)Nc3cccc(Cl)c3C)sc2n1
- EC50 [7]: 7.73 µM (active)
- IC50 [8]: > 50 µM (inactive)
- EC50 (Mucolipin-3): > 29.9 µM (not active)
- EC50 (Ion channel NompC): > 29.9 µM (inactive)
- IC50 [9]: 17.8 µM (active)
- EC50 [10]: 1.65 µM (active)
- IC50 [11]: 6.83 µM (active)
- IC50 [12]: > 100 µM (inactive)
- IC50 [3]: 46.5 µM (inactive)
- IC50 (Large T antigen): 9.03 µM (active)
